Data published in EP0238178B1, “Novel derivatives of erythromycylamine” (ELI LILLY AND COMPANY, priority 1986, dated 1987).
Converted amounts (≈) assume the structure as drawn. Like-named read-outs stand apart in the source and are kept apart here.

Legend:
Escherichia coli EC14 = assay: MIC, standard agar-dilution assay; type: cell-based; settings: read-out: MIC
[1] = test system: Haemophilus influenzae 76; assay: MIC, standard agar-dilution assay; type: cell-based; settings: Haemophilus influenzae 76, Ampicillin-resistant strain; read-out: MIC
[2] = test system: Streptococcus sp. group D 2041; assay: MIC, standard agar-dilution assay; type: cell-based; settings: read-out: MIC
[3] = test system: Staphylococcus aureus X1.1; assay: MIC, standard agar-dilution assay; type: cell-based; settings: read-out: MIC
[4] = test system: Haemophilus influenzae C.L.; assay: MIC, standard agar-dilution assay; type: cell-based; settings: Ampicillin-sensitive strain, read-out: MIC
[5] = test system: Staphylococcus aureus S13E; assay: MIC, standard agar-dilution assay; type: cell-based
[6] = test system: Klebsiella pneumoniae X68; assay: MIC, standard agar-dilution assay; type: cell-based; settings: read-out: MIC
[7] = test system: Staphylococcus epidermidis 222; assay: MIC, standard agar-dilution assay; type: cell-based; settings: read-out: MIC
[8] = test system: Streptococcus sp. group D X66; assay: MIC, standard agar-dilution assay; type: cell-based; settings: Streptococcus sp. group D X66; read-out: MIC
[9] = test system: Streptococcus pneumoniae Park I; assay: MIC, standard agar-dilution assay; type: cell-based; settings: read-out: MIC
[10] = test system: Staphylococcus epidermidis EPI1; assay: MIC, standard agar-dilution assay; type: cell-based
Text: (§1) In addition to excellent in vitro activity against erythromycin-sensitive bacteria, several members of this new series have shown in vitro activity against erythromycin-resistant strains. These include strains which are inducibly-resistant to erythromycin (S.. aureus V41 and X400 and S. epidermidis EPI1) and even strains which are constitutively-resistant (S. epidermidis 270).

[11] = test system: Staphylococcus aureus V41; assay: MIC, standard agar-dilution assay; type: cell-based
Text: as §1

[12] = test system: Staphylococcus aureus X400; assay: MIC, standard agar-dilution assay; type: cell-based
Text: as §1

[13] = test system: Streptococcus pyogenes C203; assay: MIC, standard agar-dilution assay; type: cell-based; settings: read-out: MIC
Streptococcus pyogenes = assay: Experimental bacterial infection in mice, ED50; type: in vivo; settings: Streptococcus pyogenes, po, two doses, dose protecting 50% of animals, read-out: Oral ED50
Procedure: (§2) The new derivatives of this invention have also shown in vivo antimicrobial activity against experimental bacterial infections. When two doses of test compound were administered to mice in experimental infections, the activity observed was measured as an EDso value [effective dose in mg/kg to protect 50% of the test animals: see Warren Wick, et al., J. Bacteriol. 81, 233-235 (1961)].

Staphylococcus aureus = assay: Experimental bacterial infection in mice, ED50; type: in vivo; settings: Staphylococcus aureus, two doses, dose protecting 50% of animals
Procedure: as §2

Streptococcus pneumoniae = assay: Experimental bacterial infection in mice, ED50; type: in vivo; settings: Streptococcus pneumoniae, po, two doses, dose protecting 50% of animals, read-out: Oral ED50
Procedure: as §2

[14] = Staphylococcus aureus V41, Penicillin-resistant strain, inducibly-resistant to erythromycin, read-out: MIC
[15] = Staphylococcus aureus X400, Methicillin-resistant strain, inducibly-resistant to erythromycin, read-out: MIC
[16] = sc, subcutaneous, read-out: Subcutaneous ED50

SMILES	MIC (Escherichia coli EC14) [µg/mL]	MIC [1] [µg/mL]	MIC [2] [µg/mL]	MIC [3] [µg/mL]	MIC [4] [µg/mL]	MIC [5] [µg/mL]	MIC [6] [µg/mL]	MIC [7] [µg/mL]	MIC [8] [µg/mL]	MIC [9] [µg/mL]	MIC [10] [µg/mL]	MIC [11, 14] [µg/mL]	MIC [12, 15] [µg/mL]	MIC [13] [µg/mL]	ED50 (Streptococcus pyogenes) [mg/kg]	ED50 (Staphylococcus aureus; po, read-out: Oral ED50) [mg/kg]	ED50 (Staphylococcus aureus; [16]) [mg/kg]	ED50 (Streptococcus pneumoniae) [mg/kg]	MIC ([11]; Staphylococcus aureus, V41) [µg/mL]	MIC ([12]; Staphylococcus aureus, X400) [µg/mL]
CC[C@H]1OC(=O)[C@H](C)[C@@H](O[C@H]2C[C@@](C)(OC)[C@@H](O)[C@H](C)O2)[C@H](C)[C@@H](O[C@@H]2O[C@H](C)C[C@H](N(C)C)[C@H]2O)[C@](C)(O)C[C@@H](C)[C@H](N(C)C(C)C)[C@H](C)[C@@H](O)[C@]1(C)O [Compound 70, 9-Deoxo-9-[(N-methyl-N-isopropyl)amino]erythromycin]	> 128	32 (≈ 40.5 µM)	32 (≈ 40.5 µM)	8 (≈ 10.1 µM)	32 (≈ 40.5 µM)	8 (≈ 10.1 µM)	> 128	8 (≈ 10.1 µM)	2 (≈ 2.53 µM)	0.5 (≈ 0.632 µM)	> 128	> 128	> 128	0.5 (≈ 0.632 µM)						
CC[C@H]1OC(=O)[C@H](C)[C@@H](O[C@H]2C[C@@](C)(OC)[C@@H](O)[C@H](C)O2)[C@H](C)[C@@H](O[C@@H]2O[C@H](C)C[C@H](N(C)C)[C@H]2O)[C@](C)(O)C[C@@H](C)[C@H]2[C@H](C)[C@@H](OCN2C2CCCC2)[C@]1(C)O [Compound 60]	64 (≈ 78.5 µM)	4 (≈ 4.91 µM)	8 (≈ 9.81 µM)	1 (≈ 1.23 µM)	4 (≈ 4.91 µM)	2 (≈ 2.45 µM)	64 (≈ 78.5 µM)	1 (≈ 1.23 µM)	0.5 (≈ 0.613 µM)	0.06 (≈ 0.0736 µM)	> 128	> 128	> 128	0.125 (≈ 0.153 µM)	10.2	> 50	5	9		
CC[C@H]1OC(=O)[C@H](C)[C@@H](O[C@H]2C[C@@](C)(OC)[C@@H](O)[C@H](C)O2)[C@H](C)[C@@H](O[C@@H]2O[C@H](C)C[C@H](N(C)C)[C@H]2O)[C@](C)(O)C[C@@H](C)[C@H](N2CCCCC2)[C@H](C)[C@@H](O)[C@]1(C)O [Compound 72, 9-Deoxo-9-(1-piperidinyl)erythromycin]	> 128	64 (≈ 79.7 µM)	128 (≈ 159 µM)	16 (≈ 19.9 µM)	2 (≈ 2.49 µM)	16 (≈ 19.9 µM)	> 128	8 (≈ 9.96 µM)	4 (≈ 4.98 µM)	1 (≈ 1.25 µM)	> 128	> 128	> 128	1 (≈ 1.25 µM)	23.6	> 44		20.6		
CCC(CC)CN[C@@H]1[C@H](C)[C@@H](O)[C@](C)(O)[C@@H](CC)OC(=O)[C@H](C)[C@@H](O[C@H]2C[C@@](C)(OC)[C@@H](O)[C@H](C)O2)[C@H](C)[C@@H](O[C@@H]2O[C@H](C)C[C@H](N(C)C)[C@H]2O)[C@](C)(O)C[C@H]1C [Compound 12, 9-Deoxo-9-[(2-ethylbutyl)amino]erythromycin]	64 (≈ 78.1 µM)	2 (≈ 2.44 µM)	8 (≈ 9.77 µM)	0.5 (≈ 0.61 µM)	2 (≈ 2.44 µM)	0.25 (≈ 0.305 µM)	32 (≈ 39.1 µM)	0.5 (≈ 0.61 µM)	0.125 (≈ 0.153 µM)	0.015 (≈ 0.0183 µM)		16 (≈ 19.5 µM)	16 (≈ 19.5 µM)	0.015 (≈ 0.0183 µM)	9.4	22.3		16.6		
CC[C@H]1OC(=O)[C@H](C)[C@@H](O[C@H]2C[C@@](C)(OC)[C@@H](O)[C@H](C)O2)[C@H](C)[C@@H](O[C@@H]2O[C@H](C)C[C@H](N(C)C)[C@H]2O)[C@](C)(O)C[C@@H](C)[C@H]2[C@H](C)[C@@H](OCN2C(C)C)[C@]1(C)O [Compound 58, 9-Deoxo-9-[isopropylamino]-9,11-(N,O)-cyclic Methylene Adduct of Erythromycin]	32 (≈ 40.6 µM)	4 (≈ 5.07 µM)	4 (≈ 5.07 µM)	1 (≈ 1.27 µM)	4 (≈ 5.07 µM)	1 (≈ 1.27 µM)	64 (≈ 81.1 µM)	0.5 (≈ 0.634 µM)	0.25 (≈ 0.317 µM)	0.06 (≈ 0.076 µM)	128 (≈ 162 µM)			0.125 (≈ 0.158 µM)	6.7		> 10	5.7	> 128	> 128
CC[C@H]1OC(=O)[C@H](C)[C@@H](O[C@H]2C[C@@](C)(OC)[C@@H](O)[C@H](C)O2)[C@H](C)[C@@H](O[C@@H]2O[C@H](C)C[C@H](N(C)C)[C@H]2O)[C@](C)(O)C[C@@H](C)[C@H]2[C@H](C)[C@@H](OCN2Cc2ccccc2)[C@]1(C)O [Compound 62, 9-Deoxo-9-[(benzyl)amino]-9,11-(N.O)-cyclic Methylene Adduct of Erythromycin]	> 128	4 (≈ 4.78 µM)	4 (≈ 4.78 µM)	1 (≈ 1.19 µM)	4 (≈ 4.78 µM)	1 (≈ 1.19 µM)	> 128	0.5 (≈ 0.597 µM)	0.5 (≈ 0.597 µM)	0.06 (≈ 0.0717 µM)	64 (≈ 76.5 µM)	64 (≈ 76.5 µM)	128 (≈ 153 µM)	0.125 (≈ 0.149 µM)	15.6	> 50		15.2		
CC[C@H]1OC(=O)[C@H](C)[C@@H](O[C@H]2C[C@@](C)(OC)[C@@H](O)[C@H](C)O2)[C@H](C)[C@@H](O[C@@H]2O[C@H](C)C[C@H](N(C)C)[C@H]2O)[C@](C)(O)C[C@@H](C)[C@H](N(C)C)[C@H](C)[C@@H](O)[C@]1(C)O [Compound 69, 9-Deoxo-9-(dimethylamino)erythromycin]	128 (≈ 168 µM)	8 (≈ 10.5 µM)	4 (≈ 5.24 µM)	4 (≈ 5.24 µM)	2 (≈ 2.62 µM)	2 (≈ 2.62 µM)	> 128	2 (≈ 2.62 µM)	0.5 (≈ 0.655 µM)		> 128	64 (≈ 83.9 µM)	64 (≈ 83.9 µM)	0.25 (≈ 0.328 µM)	21.9	> 43.8		43.5		
CC[C@H]1OC(=O)[C@H](C)[C@@H](O[C@H]2C[C@@](C)(OC)[C@@H](O)[C@H](C)O2)[C@H](C)[C@@H](O[C@@H]2O[C@H](C)C[C@H](N(C)C)[C@H]2O)[C@](C)(O)C[C@@H](C)[C@H](N(C)C2CCCCC2)[C@H](C)[C@@H](O)[C@]1(C)O [Compound 71, 9-Deoxo-9-[(N-cyclohexyl-N-methyl)amino]erythromycin]	> 128	32 (≈ 38.5 µM)	128 (≈ 154 µM)	16 (≈ 19.3 µM)	32 (≈ 38.5 µM)	16 (≈ 19.3 µM)	> 128	8 (≈ 9.63 µM)	8 (≈ 9.63 µM)	0.125 (≈ 0.15 µM)	> 128	> 128	> 128	1 (≈ 1.2 µM)	> 50	> 50		> 50		
